Results as given in ChEMBL document CHEMBL1153470, “Design, synthesis, and biological evaluation of 16-substituted 4-azasteroids as tissue-selective androgen receptor modulators (SARMs)” (J Med Chem, 2009).
≈ marks a conversion by molar mass, not a printed value.

Assays:
[1] = Half life in Beagle dog at 0.2 mg/kg, iv; assay type: ADME, organism-based, Canis lupus familiaris; design: dose 0.2 mg/kg, route intravenous; settings: in vivo
[2] = Clearance in Beagle dog at 0.2 mg/kg, iv; assay type: ADME, organism-based, Canis lupus familiaris; design: dose 0.2 mg/kg, route intravenous; settings: in vivo
[3] = in vivo; settings: male, Sprague-Dawley, rat, plasma, sc, 3 mg/kg
[4] = in vivo; settings: female, Sprague-Dawley, rat, plasma, sc, 3 mg/kg
[5] = AUC in orchidectomized Sprague-Dawley rat at 10 mg/kg, sc; assay type: ADME, organism-based; design: dose 10 mg/kg, route subcutaneous; settings: male, plasma
[6] = Oral bioavailability in Beagle dog at 1 mg/kg; assay type: ADME, organism-based, Canis lupus familiaris; settings: in vivo
[7] = Aqueous solubility at pH 2; assay type: physicochemical
[8] = AUC in orchidectomized Sprague-Dawley rat at 30 mg/kg, sc; assay type: ADME, organism-based; design: dose 30 mg/kg, route subcutaneous; settings: male, plasma
[9] = AUC in ovariectomized Sprague-Dawley rat at 10 mg/kg, sc; assay type: ADME, organism-based; design: dose 10 mg/kg, route subcutaneous; settings: female, plasma
[10] = AUC in ovariectomized Sprague-Dawley rat at 1 mg/kg, sc; settings: female, plasma

Compound	half-life [1] [h]	clearance [2] [mL/min/kg]	also measured
CN1C(=O)C=C[C@]2(C)[C@H]3CC[C@]4(C)[C@@H](O)[C@H](Cc5cccc(F)c5)C[C@H]4[C@@H]3CC[C@@H]12	3	22	–
CNc1ncc(/C=C2\C[C@H]3[C@@H]4CC[C@H]5N(C)C(=O)C=C[C@]5(C)[C@H]4CC[C@]3(C)[C@H]2O)cn1	10.9	0.8	–
C[C@@H]1C[C@H]2[C@@H]3CC[C@H]4N(C)C(=O)C=C[C@]4(C)[C@H]3CC[C@]2(C)[C@H]1O	1	20.2	–
CN1C(=O)C=C[C@]2(C)[C@H]3CC[C@]4(C)[C@@H](O)/C(=C/c5cccc(F)c5)C[C@H]4[C@@H]3CC[C@@H]12	4.9	15.2	–
C[C@]12CCC(=O)C[C@@H]1CC[C@@H]1[C@@H]2CC[C@]2(C)[C@@H](O)CC[C@@H]12 [STANOLONE]	–	–	AUC [3]: 0.08 µM·h; AUC [4]: 0.02 µM·h
CN1C(=O)C=C[C@]2(C)[C@H]3CC[C@]4(C)[C@@H](O)/C(=C/c5cc(F)cc(F)c5)C[C@H]4[C@@H]3CC[C@@H]12	9.1	6.8	–
CN1C(=O)C=C[C@]2(C)[C@H]3CC[C@]4(C)[C@@H](O)CC[C@H]4[C@@H]3CC[C@@H]12	0.7	32.3	–
COC[C@@H]1C[C@H]2[C@@H]3CC[C@H]4N(C)C(=O)C=C[C@]4(C)[C@H]3CC[C@]2(C)[C@H]1O	1.5	11	–
C/C=C1\C[C@H]2[C@@H]3CC[C@H]4N(C)C(=O)C=C[C@]4(C)[C@H]3CC[C@]2(C)[C@H]1O	1	42.8	–
COc1ncc(/C=C2\C[C@H]3[C@@H]4CC[C@H]5N(C)C(=O)C=C[C@]5(C)[C@H]4CC[C@]3(C)[C@H]2O)cn1	12.7	4.6	–
CN1C(=O)C=C[C@]2(C)[C@H]3CC[C@]4(C)[C@@H](O)/C(=C/c5cncnc5)C[C@H]4[C@@H]3CC[C@@H]12	2.3	15.3	AUC [5]: 4.3 µM·h; bioavailability [6]: 51%; solubility [7]: 570 µg/mL (≈ 1450 µM); AUC [8]: 16.2 µM·h; AUC [9]: 17 µM·h
Cc1ncc(/C=C2\C[C@H]3[C@@H]4CC[C@H]5N(C)C(=O)C=C[C@]5(C)[C@H]4CC[C@]3(C)[C@H]2O)cn1	18.7	1.5	solubility [7]: 230 µg/mL (≈ 564 µM); AUC [10]: 17 µM·h
CN1C(=O)C=C[C@]2(C)[C@H]3CC[C@]4(C)[C@@H](O)/C(=C/c5cccnc5)C[C@H]4[C@@H]3CC[C@@H]12	17.1	5	bioavailability [6]: 21%
